Reference: patent US20240067617A1 (Albireo AB, priority 2022, published 2024)

How the values were obtained:
hIBAT = target: T1, hIBAT (Homo sapiens, UniProt Q12908); test: IBAT (h/m) assay: 3H-taurocholic acid uptake in human IBAT-overexpressing cells; type: cell-based; conditions: 0.25 μM 3H-taurocholic acid + 5 μM cold taurocholic acid, 20 minutes at 37° C., highest test concentration 10 μM
T1 construct: expressed in transfected cells; kept under Puromycin selection
T1 sequence (Q12908 1-348): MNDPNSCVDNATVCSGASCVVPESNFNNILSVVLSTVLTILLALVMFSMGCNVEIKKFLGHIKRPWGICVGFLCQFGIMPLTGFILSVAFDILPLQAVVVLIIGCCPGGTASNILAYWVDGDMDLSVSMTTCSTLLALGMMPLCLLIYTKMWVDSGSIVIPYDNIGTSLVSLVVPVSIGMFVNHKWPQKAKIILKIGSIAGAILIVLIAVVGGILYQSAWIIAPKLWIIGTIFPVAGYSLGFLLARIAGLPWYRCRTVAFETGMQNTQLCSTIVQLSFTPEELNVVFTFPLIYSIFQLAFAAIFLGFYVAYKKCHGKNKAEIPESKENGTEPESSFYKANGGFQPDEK
Method: IBAT (h/m) Assay Protocol
10,000 cells (Human or Mouse IBAT-overexpressing cells) were seeded in 96-wells plate (Corning CLS3809) in 200 μL MEM-alpha medium (Gibco 12571-063) supplemented with 10% FBS (Gibco 10438026) containing Puromycin (Gibco A1113803) (10 μg/mL) and incubated at 37° C. in 5% CO2 for 48 hours. After incubation, media was decanted from the wells and cells were washed two times with 300 μL of basal MEM-alpha medium (FBS-free). After decanting basal MEM-alpha medium each time, plates were tapped against paper towel to ensure maximum removal of residual media. Test inhibitor dilutions (highest test concentration being 10 μM, 3-fold serial dilution, 10 points) prepared in DMSO (Sigma D2650) were added in incubation mix (maintaining 0.2% final DMSO concentration) containing 0.25 μM 3H-taurocholic acid (ARC ART-1368) and 5 μM of cold taurocholic acid (Sigma T4009). 50 μL of incubation mix containing test inhibitors was then added to the wells (in duplicate) and the plates were incubated for 20 minutes in a CO2 incubator at 37° C. After incubation, the reaction was stopped by keeping the plates on ice water mix for 2-3 minutes and then the incubation mix was aspirated completely from the wells. The wells were washed two times with 250 μL of chilled unlabelled 1 mM taurocholic acid dissolved in HEPES (Gibco 15630080)-buffered (10 mM) HBSS (Gibco 14175079) (pH 7.4). The plates were tapped against a paper towel after every wash to ensure maximum removal of blocking buffer.
(§1) 100 μL of MicroScint-20 (PerkinElmer 6013621) was added to the wells and kept overnight at RT before reading the plates in TopCount NXT™ Microplate Scintillation and Luminescence Counter from PerkinElmer under 3H Test protocol (set at 120 seconds reading time per well).
(§2) Preparation of Test Compound Dilutions
(§3) All test compounds were provided in powder form at RT. 10 mM DMSO stocks of the test compounds were prepared, aliquoted and stored at −20° C. From the 10 mM DMSO stock of the compounds, a 3-fold serial dilution in DMSO was prepared to get a total of 10 dilutions of the test compounds. 0.5 μL of this dilution in DMSO was added to 250 μL of FBS-free basal media containing 3H-taurocholic acid and cold taurocholic acid to prepare the incubation mixture.

hLBAT = target: T2, hLBAT (Homo sapiens, UniProt Q14973); test: LBAT (h/m) assay: 3H-taurocholic acid uptake in human LBAT-overexpressing cells; type: cell-based; conditions: 0.3 μM 3H-taurocholic acid + 7.5 μM cold taurocholic acid, 20 minutes at 37° C.
T2 construct: expressed in transfected cells; kept under Geneticin selection
T2 sequence (Q14973 1-349): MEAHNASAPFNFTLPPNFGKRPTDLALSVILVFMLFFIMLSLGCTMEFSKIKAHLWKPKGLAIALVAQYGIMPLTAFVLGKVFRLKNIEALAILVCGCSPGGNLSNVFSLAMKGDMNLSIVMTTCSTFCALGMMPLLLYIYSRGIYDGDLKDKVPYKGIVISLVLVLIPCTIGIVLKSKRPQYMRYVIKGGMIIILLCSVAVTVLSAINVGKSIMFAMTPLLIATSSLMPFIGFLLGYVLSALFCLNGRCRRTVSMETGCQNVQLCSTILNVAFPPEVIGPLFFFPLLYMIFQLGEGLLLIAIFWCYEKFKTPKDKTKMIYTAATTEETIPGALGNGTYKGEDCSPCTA
Method: LBAT (h/m) Assay Protocol
20,000 cells (Human or Mouse LBAT-overexpressing cells) were seeded in 96-wells plate (Corning CLS3809) in 100 μL MEM-alpha medium (Gibco 12571-063) supplemented with 10% FBS (Gibco 10438026) containing Geneticin (Gibco 10131-027) (1 mg/mL) and incubated at 37° C. in 5% CO2 for 24 hours. After incubation, media was decanted from the wells and cells were washed two times with 300 μL of basal MEM-alpha medium (FBS-free). After decanting basal MEM-alpha medium each time, plates were tapped against paper towel to ensure maximum removal of residual media. For human LBAT, incubation mix was prepared by adding test inhibitor dilutions (3-fold serial dilution in DMSO (Sigma D2650), 10 points) in MEM-alpha (without FBS) containing 0.3 μM 3H-taurocholic acid (ARC ART-1368) and 7.5 μM cold taurocholic acid (Sigma T4009) (maintaining 0.2% final DMSO concentration). For mouse LBAT, incubation mix was prepared by adding test inhibitor dilutions (3-fold serial dilution in DMSO, 10 points) in MEM-alpha (without FBS) containing 0.3 μM 3H-taurocholic acid and 25 μM cold taurocholic acid maintaining 0.2% final DMSO concentration). 50 μL of incubation mix containing test inhibitors was then added to the wells (in duplicate) and the plates were incubated for 20 minutes in a CO2 incubator at 37° C. After incubation, the reaction was stopped by keeping the plates on ice water mix for 2-3 minutes and then the incubation mix was aspirated completely from the wells. The wells were washed two times with 250 μL of chilled unlabelled 1 mM taurocholic acid dissolved in HEPES (Gibco 15630080)-buffered (10 mM) HBSS (Gibco 14175079) (pH 7.4). The plates were tapped against a paper towel after every wash to ensure maximum removal of blocking buffer.
as §1, with “well, with normal plate orientation).” for “well).”
as §2, §3

`CCCCC1(C)CN(c2ccccc2)c2cc(OC)c(CSC(C)(C)C(=O)O)cc2S(=O)(=O)C1` (racemic) [Example 41, 2-(((3-butyl-7-methoxy-3-methyl-1,1-dioxido-5-phenyl-2,3,4,5-tetrahydro-1,5-benzothiazepin-8-yl)methyl)thio)-2-methylpropanoic acid] gave an IC50 (hIBAT) greater than 1110 nM and an IC50 (hLBAT) of 134 nM.
`CCCCC1(CC)CN(c2ccccc2)c2cc(OC)c(CSCC(=O)O)cc2S(=O)(=O)N1` (racemic) [Example 44, 2-(((3-butyl-3-ethyl-7-methoxy-1,1-dioxido-5-phenyl-2,3,4,5-tetrahydro-1,2,5-benzothiadiazepin-8-yl)methyl)thio)acetic acid] gave an IC50 (hIBAT) of 5.2 nM and an IC50 (hLBAT) greater than 1000 nM.
In the case of `CCCCC1(CC)CN(c2ccccc2)c2cc(S(C)(=O)=O)c(CSCC(=O)O)cc2S(=O)(=O)N1` (racemic) [Example 47, 2-(((3-butyl-3-ethyl-7-(methylsulfonyl)-1,1-dioxido-5-phenyl-2,3,4,5-tetrahydro-1,2,5-benzothiadiazepin-8-yl)methyl)thio)acetic acid], the IC50 (hIBAT) is reported as 14 nM and the IC50 (hLBAT) is reported as greater than 1000 nM.
`CCCCC1(CC)CN(c2ccccc2)c2cc(SC)c(CSCC(=O)O)cc2S(=O)(=O)C1` (single isomer, unassigned) [2, enantiomer 2] was tested, and the IC50 (hIBAT) was 2.8 nM and the IC50 (hLBAT) was 3150 nM.
`CCCCC1(C)CN(c2ccccc2)c2cc(SC)c(CSCC(=O)O)cc2S(=O)(=O)C1` (single isomer, unassigned) [5, enantiomer 2] showed an IC50 (hIBAT) of 44 nM and an IC50 (hLBAT) of 4400 nM.
`CCCCC1(CC)CN(c2ccc(F)cc2)c2cc(SC)c(CSCC(=O)O)cc2S(=O)(=O)C1` (single isomer, unassigned) [7, enantiomer 2] was tested, and the IC50 (hIBAT) was 2.8 nM and the IC50 (hLBAT) was 4840 nM.
`CCCCC1(CC)CN(c2ccccc2)c2cc(SC)c(CSCC(=O)O)cc2S(=O)(=O)N1` (single isomer, unassigned) [10, enantiomer 1] showed an IC50 (hIBAT) of 0.3 nM and an IC50 (hLBAT) greater than 3330 nM.
`CCCCC1CN(c2ccccc2)c2cc(SC)c(CSCC(=O)O)cc2S(=O)(=O)N1C` (single isomer, unassigned) [12, enantiomer 1] was tested, and the IC50 (hIBAT) was 115 nM and the IC50 (hLBAT) was greater than 10000 nM.
Compound `CCCCC1CN(c2ccccc2)c2cc(SC)c(CSCC(=O)O)cc2S(=O)(=O)N1C` (single isomer, unassigned) [12, enantiomer 2] has an IC50 (hIBAT) of 116 nM and an IC50 (hLBAT) of 34 nM.
`CCCCC1(CC)CN(c2ccccc2)c2cc(OC)c(CSCC(=O)O)cc2S(=O)(=O)C1` (single isomer, unassigned) [14, enantiomer 1] showed an IC50 (hIBAT) of 1.1 nM and an IC50 (hLBAT) greater than 1000 nM.
In the case of `CCCCC1(CC)CN(c2ccccc2)c2cc(OC)c(CSCC(=O)O)cc2S(=O)(=O)C1` (single isomer, unassigned) [14, enantiomer 2], the IC50 (hIBAT) is reported as 64 nM and the IC50 (hLBAT) is reported as greater than 1000 nM.
In the case of `CCCCC1(CC)CN(c2ccc(F)cc2)c2cc(SC)c(CSC(C)(C)C(=O)O)cc2S(=O)(=O)C1` (single isomer, unassigned) [16, enantiomer 1], the IC50 (hIBAT) is reported as 10 nM and the IC50 (hLBAT) is reported as 164 nM.
Compound `CCCCC1(CC)CN(c2ccc(F)cc2)c2cc(SC)c(CSC(C)(C)C(=O)O)cc2S(=O)(=O)C1` (single isomer, unassigned) [16, enantiomer 2] has an IC50 (hIBAT) of 659 nM and an IC50 (hLBAT) of 220 nM.
`CCCCC1(C)CN(c2ccccc2)c2cc(SC)c(CSC(C)(C)C(=O)O)cc2S(=O)(=O)C1` (single isomer, unassigned) [19, enantiomer 1] showed an IC50 (hIBAT) of 192 nM and an IC50 (hLBAT) of 194 nM.
`CCCCC1(C)CN(c2ccccc2)c2cc(SC)c(CSC(C)(C)C(=O)O)cc2S(=O)(=O)C1` (single isomer, unassigned) [19, enantiomer 2] was tested, and the IC50 (hIBAT) was 1870 nM and the IC50 (hLBAT) was 176 nM.
With `CCCCC1(CC)CN(c2ccccc2)c2cc(SC)c(CSCC(=O)O)cc2S(=O)(=O)N1C` (single isomer, unassigned) [21, enantiomer 1] the IC50 (hIBAT) was greater than 243 nM and the IC50 (hLBAT) was 3310 nM.
`CCCCC1(CC)CN(c2ccccc2)c2cc(SC)c(CSCC(=O)O)cc2S(=O)(=O)N1C` (single isomer, unassigned) [21, enantiomer 2] gave an IC50 (hIBAT) greater than 554 nM and an IC50 (hLBAT) of 1900 nM.
`CCCCC1(CC)CN(c2ccccc2)c2cc(OC)c(CSC(C)(C)C(=O)O)cc2S(=O)(=O)C1` (single isomer, unassigned) [26, enantiomer 1] gave an IC50 (hIBAT) of 195 nM and an IC50 (hLBAT) of 104 nM.
`CCCCC1(CC)CN(c2ccccc2)c2cc(OC)c(CSC(C)(C)C(=O)O)cc2S(=O)(=O)C1` (single isomer, unassigned) [26, enantiomer 2] showed an IC50 (hIBAT) of 5110 nM and an IC50 (hLBAT) of 245 nM.
Compound `CCCCC1(C)CN(c2ccccc2)c2cc(OC)c(CSCC(=O)O)cc2S(=O)(=O)C1` (single isomer, unassigned) [28, enantiomer 1] has an IC50 (hIBAT) of 7.7 nM and an IC50 (hLBAT) greater than 10000 nM.
`CCCCC1(C)CN(c2ccccc2)c2cc(OC)c(CSCC(=O)O)cc2S(=O)(=O)C1` (single isomer, unassigned) [28, enantiomer 2] gave an IC50 (hIBAT) of 532 nM and an IC50 (hLBAT) greater than 10000 nM.
Work on `CCCCC1CN(c2ccc(F)cc2)c2cc(OC)c(CSCC(=O)O)cc2S(=O)(=O)N1C` (single isomer, unassigned) [30, enantiomer 1] yielded an IC50 (hIBAT) greater than 10000 nM and an IC50 (hLBAT) greater than 10000 nM.
With `CCCCC1CN(c2ccc(F)cc2)c2cc(OC)c(CSCC(=O)O)cc2S(=O)(=O)N1C` (single isomer, unassigned) [30, enantiomer 2] the IC50 (hIBAT) was 349 nM and the IC50 (hLBAT) was 200 nM.
`CCCCC1(CC)CN(c2ccc(F)cc2)c2cc(OC)c(CSC(C)(C)C(=O)O)cc2S(=O)(=O)C1` (single isomer, unassigned) [34, enantiomer 1] showed an IC50 (hIBAT) of 161 nM and an IC50 (hLBAT) of 110 nM.
`CCCCC1(CC)CN(c2ccc(F)cc2)c2cc(OC)c(CSC(C)(C)C(=O)O)cc2S(=O)(=O)C1` (single isomer, unassigned) [34, enantiomer 2] was tested, and the IC50 (hIBAT) was 1960 nM and the IC50 (hLBAT) was 155 nM.
`CCCCC1CN(c2ccccc2)c2cc(OC)c(CSCC(=O)O)cc2S(=O)(=O)N1C` (single isomer, unassigned) [36, enantiomer 1] gave an IC50 (hIBAT) greater than 10000 nM and an IC50 (hLBAT) greater than 10000 nM.
